# Results as given in US12281118B2, “Nitrogen-containing fused heterocyclic SHP2 inhibitor compound, preparation method, and use” (SHANGHAI RINGENE BIOPHARMA CO., LTD., priority 2018, dated 2025).
# Like-named read-outs stand apart in the source and are kept apart here.
# How the values were obtained:
# CYP2C8 = CYP2C8 (Homo sapiens (Human), UniProt P10632); assay: biochemical; type: in vitro ADME
# CYP1A2 = CYP1A2 (Homo sapiens (Human), UniProt P05177); assay: CYP direct inhibition test (DI test) in human liver microsomes; type: in vitro ADME
# CYP1A2, sequence (P05177 whole entry): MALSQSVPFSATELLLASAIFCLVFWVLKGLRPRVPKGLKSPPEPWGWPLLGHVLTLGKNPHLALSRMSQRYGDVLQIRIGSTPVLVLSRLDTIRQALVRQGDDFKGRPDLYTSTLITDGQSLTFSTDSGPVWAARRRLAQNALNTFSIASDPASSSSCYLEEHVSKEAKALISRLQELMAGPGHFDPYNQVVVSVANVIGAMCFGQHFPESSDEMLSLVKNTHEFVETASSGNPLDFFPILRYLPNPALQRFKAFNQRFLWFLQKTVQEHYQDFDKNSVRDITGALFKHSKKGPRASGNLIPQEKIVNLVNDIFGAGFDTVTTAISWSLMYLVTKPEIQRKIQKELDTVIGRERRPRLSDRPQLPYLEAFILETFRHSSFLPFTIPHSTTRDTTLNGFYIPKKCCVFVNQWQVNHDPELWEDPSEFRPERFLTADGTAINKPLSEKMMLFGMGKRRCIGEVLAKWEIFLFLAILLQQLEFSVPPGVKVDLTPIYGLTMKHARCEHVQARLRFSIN
# Description: (§1) Direct inhibition test (DI test): Incubating 100 μL of human liver microsomes (final concentration 0.2 mg/mL) containing NADPH (final concentration 1 mM), 10 μM of compound, a positive inhibitor cocktail (ketoconazole 10 μM, quinidine 10 μM, sulfaphenazole 100 μM, a-naphthoflavone 10 μM, and tranylcypromine 1,000 μM), a negative control (BPS containing 0.1% dimethyl sulfoxide) and a mixed probe substrate (midazolam 10 μM, testosterone 100 μM, dextromethorphan 10 μM, diclofenac 20 μM, phenacetin 100 μM, and mephenytoin 100 μM) for direct inhibition, and terminating the reaction after 20 min of the incubation. Calculating the relative enzyme activity by measuring the relative production of metabolites.
# [1] = In vivo pharmacokinetic parameters; set-up: AUC: unit not given here; settings: plasma, po; for AUC: read-out: Area under the curve AUC; for bioavailability: read-out: Bioavailability F; for half-life: read-out: Half-life T1/2 (converted); for Cmax: read-out: Maximum plasma concentration Cmax
# Description: Dividing 6 SPF-grade laboratory animals into two groups, and preparing the test compound to a suitable solution or suspension; intravenously administering animals in one group, and orally administering animals in the other group. Collecting blood via jugular vein puncture at approximately 0.2 mL/time point for each sample, anticoagulating with sodium heparin, wherein the time points for blood collection is as follows: pre-dose, and 5, 15 and 30 min, and 1, 2, 4, 6, 8, and 24 h post-dose; placing the collected blood samples on ice, separating plasma by centrifugation (centrifugation conditions: 8,000 rpm, 6 min, 2-8° C.), and storing the collected plasma at −80° C. before analysis. Analyzing plasma samples using LC-MS/MS.
# Based on the plasma concentration data of the drug, pharmacokinetic parameters such as AUC0-t, AUC0-∞, MRT0-∞, Cmax, Tmax, T1/2 and Vd of a test sample, as well as mean and standard deviations thereof are calculated using a pharmacokinetic calculation software WinNonlin 5.2 noncompartmental model. In addition, the bioavailability (F) is calculated by the following formula.
# For samples with concentrations below the lower limit of quantification, samples taken before reaching Cmax should be calculated as zero for calculations of the pharmacokinetic parameter, and samples taken at sampling points after reaching Cmax should be calculated as non-quantifiable (BLQ) (specific results are shown in Table 3).
# CYP2C19 = CYP2C19 (Homo sapiens (Human), UniProt P33261); assay: biochemical; type: in vitro ADME
# CYP2C19, sequence (P33261 whole entry): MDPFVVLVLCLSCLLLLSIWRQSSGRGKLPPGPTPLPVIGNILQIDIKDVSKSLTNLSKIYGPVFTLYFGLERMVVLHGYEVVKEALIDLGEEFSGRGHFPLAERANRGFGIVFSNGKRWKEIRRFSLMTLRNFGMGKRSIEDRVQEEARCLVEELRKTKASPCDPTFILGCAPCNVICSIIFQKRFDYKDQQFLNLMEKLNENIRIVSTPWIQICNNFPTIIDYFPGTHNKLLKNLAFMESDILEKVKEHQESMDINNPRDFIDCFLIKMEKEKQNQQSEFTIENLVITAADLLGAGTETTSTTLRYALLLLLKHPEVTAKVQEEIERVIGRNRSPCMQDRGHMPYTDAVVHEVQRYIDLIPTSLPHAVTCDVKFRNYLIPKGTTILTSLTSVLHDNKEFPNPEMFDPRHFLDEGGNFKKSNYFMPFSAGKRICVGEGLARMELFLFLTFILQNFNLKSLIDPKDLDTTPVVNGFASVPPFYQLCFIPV
# Description: as §1
# CYP2C9 = CYP2C9 (Homo sapiens (Human), UniProt P11712); assay: biochemical; type: in vitro ADME
# CYP2C9, sequence (P11712 whole entry): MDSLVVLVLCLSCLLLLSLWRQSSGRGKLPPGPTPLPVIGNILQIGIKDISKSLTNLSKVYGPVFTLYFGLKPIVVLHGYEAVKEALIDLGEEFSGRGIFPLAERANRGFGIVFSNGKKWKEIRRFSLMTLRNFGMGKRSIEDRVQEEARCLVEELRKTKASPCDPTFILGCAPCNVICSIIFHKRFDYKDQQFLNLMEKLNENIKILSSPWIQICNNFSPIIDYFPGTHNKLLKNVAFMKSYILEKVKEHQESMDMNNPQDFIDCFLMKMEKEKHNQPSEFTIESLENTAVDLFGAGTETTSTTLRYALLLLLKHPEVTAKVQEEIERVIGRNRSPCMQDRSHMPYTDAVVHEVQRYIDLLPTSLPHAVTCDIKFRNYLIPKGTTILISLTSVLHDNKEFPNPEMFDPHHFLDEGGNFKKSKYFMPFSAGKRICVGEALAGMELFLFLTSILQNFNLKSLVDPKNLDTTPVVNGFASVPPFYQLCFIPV
# Description: as §1
# CYP3A4 = CYP3A4 (Homo sapiens (Human), UniProt P08684); assay: biochemical; type: in vitro ADME
# CYP3A4, sequence (P08684 whole entry): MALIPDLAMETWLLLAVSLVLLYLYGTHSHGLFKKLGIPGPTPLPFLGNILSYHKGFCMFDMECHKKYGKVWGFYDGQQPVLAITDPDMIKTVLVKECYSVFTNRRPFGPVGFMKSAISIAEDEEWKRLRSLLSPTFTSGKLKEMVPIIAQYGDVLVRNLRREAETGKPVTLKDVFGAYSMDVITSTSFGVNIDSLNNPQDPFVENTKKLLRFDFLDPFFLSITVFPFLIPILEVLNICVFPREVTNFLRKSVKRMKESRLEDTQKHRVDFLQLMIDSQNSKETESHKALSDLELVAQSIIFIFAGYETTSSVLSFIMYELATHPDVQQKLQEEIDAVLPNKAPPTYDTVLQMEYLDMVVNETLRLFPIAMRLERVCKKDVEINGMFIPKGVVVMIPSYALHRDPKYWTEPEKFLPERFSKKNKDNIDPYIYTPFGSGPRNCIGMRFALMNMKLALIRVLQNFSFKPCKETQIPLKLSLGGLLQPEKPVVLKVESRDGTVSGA
# Description: as §1
# CYP2D6 = CYP2D6 (Homo sapiens (Human), UniProt P10635); assay: biochemical; type: in vitro ADME
# CYP2D6, sequence (P10635 whole entry): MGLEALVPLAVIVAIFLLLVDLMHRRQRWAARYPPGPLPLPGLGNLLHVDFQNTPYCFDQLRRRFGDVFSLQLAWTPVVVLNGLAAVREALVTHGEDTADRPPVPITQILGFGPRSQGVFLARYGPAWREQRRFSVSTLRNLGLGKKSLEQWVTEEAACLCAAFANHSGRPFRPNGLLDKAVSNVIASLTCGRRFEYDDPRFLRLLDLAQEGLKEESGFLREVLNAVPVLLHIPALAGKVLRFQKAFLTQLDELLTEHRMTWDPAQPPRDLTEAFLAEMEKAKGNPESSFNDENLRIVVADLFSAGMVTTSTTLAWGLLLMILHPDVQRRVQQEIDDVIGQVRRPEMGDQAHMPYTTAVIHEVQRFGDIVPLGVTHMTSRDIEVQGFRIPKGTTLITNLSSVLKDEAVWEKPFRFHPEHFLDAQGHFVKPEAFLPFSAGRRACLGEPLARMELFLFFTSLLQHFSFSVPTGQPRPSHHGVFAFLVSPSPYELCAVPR
# Description: as §1
# MV4-11 leukemia cells = assay: Inhibition of proliferation of MV4-11 leukemia cells (CellTiter-Glo, 72 h); type: cell-based; settings: Homo sapiens, MV4-11, 72 h, read-out: IC50 value, MV4-11 cell proliferation
# Description: Specific experimental procedures: 1) At Day 0: Inoculating trypsin-digested cells in 96-well plate and suspending the plate in cell culture medium; measure cell density using an automatic cell counter, diluting the cells with the culture medium to appropriate density, adding 100 μl of cell suspension in the 96-well plate, and incubating a cell-free medium as a control well in a cell incubator with […] at 37° C. overnight; 2) Day 1: Treating test compounds of the cells using a drug for a total of 8 concentrations, and diluting at a 3× concentration, wherein 10 μM is a starting test concentration of the test compounds. […] IC50 values are obtained by a four-parameter regression using software attached to the plate reader (the specific results are shown in Table 2).
# in vitro = in vitro ADME; settings: 1 μM compound
# Description: Metabolic stability test: Incubating 150 μL of liver microsomes (final concentration 0.5 mg/mL) containing NADPH (final concentration 1 mM), 1 μM of test compound and a positive control midazolam or a negative control atenolol for metabolic stability, terminating the reaction with acetonitrile containing tinidazole at 0 min, 5 min, 10 min and 30 min, respectively, vortexing for 10 min, centrifuging at 15,000 rmp for 10 min, and injecting 50 μL of supernatant into a 96-well plate. Calculating the metabolic stability of the compounds by determining the relative reduction of a parent drug.
# SHP2 enzyme = SHP2 enzyme (Homo sapiens (Human), UniProt Q06124); assay: Inhibitory activity against SHP2 enzyme (Caliper conversion rate); type: biochemical; settings: read-out: SHP2 Enzyme Inhibition IC50 Value
# SHP2 enzyme, sequence (Q06124 whole entry): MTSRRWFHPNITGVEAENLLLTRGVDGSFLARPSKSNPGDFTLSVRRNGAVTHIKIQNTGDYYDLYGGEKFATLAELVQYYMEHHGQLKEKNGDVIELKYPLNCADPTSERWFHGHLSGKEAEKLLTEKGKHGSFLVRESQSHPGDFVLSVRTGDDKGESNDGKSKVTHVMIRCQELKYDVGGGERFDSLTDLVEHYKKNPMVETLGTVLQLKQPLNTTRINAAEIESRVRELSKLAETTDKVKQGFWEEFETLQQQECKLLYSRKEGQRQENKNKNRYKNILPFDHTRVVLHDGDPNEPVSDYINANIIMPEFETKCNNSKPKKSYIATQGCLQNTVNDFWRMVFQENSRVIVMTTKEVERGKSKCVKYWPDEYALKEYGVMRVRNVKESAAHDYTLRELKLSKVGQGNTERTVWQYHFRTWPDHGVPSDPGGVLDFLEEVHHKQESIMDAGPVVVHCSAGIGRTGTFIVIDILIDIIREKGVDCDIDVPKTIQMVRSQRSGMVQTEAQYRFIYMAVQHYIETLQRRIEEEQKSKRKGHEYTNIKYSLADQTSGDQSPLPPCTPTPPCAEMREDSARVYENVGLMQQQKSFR
# Description: (1) Preparing 1×Reaction Buffer according to the BPS Biosciences' Instructions for Use of the SHP2 enzyme. (2) Preparing a compound concentration gradient: Test the test compound at 10 μM under 3× dilution for 10 concentrations, diluting to a 100% dimethyl sulfoxide solution at a 100× final concentration in a 384-well plate, and diluting the compound with Precision 4× for 10 concentrations. Transferring 250 nL of the compound at the 100× final concentration to a target plate OptiPlate-384F using a dispenser Echo 550. […] (3) Preparing the activation peptide solution at a 5× final concentration with the 1×Reaction Buffer, adding 5 μL of the solution to a reaction plate, respectively, and centrifuging at 1000 rpm for 1 min. (4) Preparing an enzyme solution at a 2.5× final concentration with the 1×Reaction Buffer, adding 10 μL of the solution to the reaction plate, respectively, centrifuging at 1000 rpm for 1 min, and incubating at room temperature for 60 min. (5) Preparing a substrate peptide solution at a 2.5× final concentration with the 1×Reaction Buffer, centrifuging at 1000 rpm for 1 min, and incubating at room temperature for 30 min. (6) Adding 30 μL of stop test solution to stop the reaction, centrifuging at 1000 rpm for […], and mixing well by shaking. (7) Reading the conversion rate with a Caliper EZ Reader. (7) Data analysis:
# Wherein: Conversion %/_sample is the reading of a conversion rate of a sample; Conversion %_min: mean of negative control wells, which represents the reading of a conversion rate in absence of enzyme activity wells; Conversion %_max: mean of a ratio of positive control wells, which represents the reading of a conversion rate in absence of compound inhibition wells.
# [2] = monkey, monkeys liver microsomes
# CYP2C8, sequence (P10632 whole entry): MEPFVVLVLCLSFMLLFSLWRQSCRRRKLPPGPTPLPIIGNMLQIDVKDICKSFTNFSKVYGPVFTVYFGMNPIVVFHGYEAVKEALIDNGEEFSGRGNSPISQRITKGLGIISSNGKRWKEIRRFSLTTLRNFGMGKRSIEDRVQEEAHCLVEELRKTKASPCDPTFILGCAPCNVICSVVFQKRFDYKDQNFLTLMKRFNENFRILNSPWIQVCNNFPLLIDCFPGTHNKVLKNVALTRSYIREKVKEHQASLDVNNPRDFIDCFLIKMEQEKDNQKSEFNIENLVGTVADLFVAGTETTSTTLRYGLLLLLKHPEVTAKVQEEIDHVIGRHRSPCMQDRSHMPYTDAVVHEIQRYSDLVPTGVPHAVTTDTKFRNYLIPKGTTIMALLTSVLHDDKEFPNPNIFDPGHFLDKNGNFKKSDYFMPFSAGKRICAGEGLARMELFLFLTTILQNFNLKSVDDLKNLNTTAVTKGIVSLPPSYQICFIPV
smiles,measurement,setting,value
"Nc1nccc(Sc2c(N)nc(N3CCC4(CC3)Cc3ccccc3[C@H]4N)n3ccnc23)c1Cl [Example 4, (S)-1′-(7-amino-8-((2-amino-3-chloropyridin-4-yl)thio)imidazo [1,2-c]pyrimidin-5-yl)-1,3-dihydrospiro [indene-2,4′-piperidine]-1-amine]",IC50,CYP2C8,> 25 µM
same,IC50,CYP1A2,> 25 µM
same,AUC,"[1]; Mouse, 5 mg/kg",557
same,bioavailability,"[1]; Mouse, 5 mg/kg",20%
same,half-life,"[1]; Mouse, 5 mg/kg",10.9 h
same,Cmax,"[1]; Mouse, 5 mg/kg",79 nM
same,IC50,CYP2C19,> 25 µM
same,IC50,CYP2C9,> 25 µM
same,IC50,CYP3A4,> 25 µM
same,IC50,CYP2D6,> 25 µM
same,IC50,MV4-11 leukemia cells,0.0047 µM
same,half-life at 1 μM,"in vitro; dog, dogs liver microsomes",> 1 h
same,half-life at 1 μM,in vitro; human liver microsomes,> 1 h
same,half-life at 1 μM,in vitro; [2],> 1 h
same,half-life at 1 μM,"in vitro; mouse, mice liver microsomes",> 1 h
same,half-life at 1 μM,"in vitro; rat, rats liver microsomes",> 1 h
same,IC50,SHP2 enzyme,0.0019 µM
"Cc1nc(N2CCC3(CC2)Cc2ccccc2[C@H]3N)n2ccnc2c1Sc1ccnc(N)c1Cl [Example 1, (S)-1′-(8-((2-amino-3-chloropyridin-4-yl)thio)-7-methylimidazo [1,2-c]pyrimidin-5-yl)-1,3-dihydrospiro [indene-2,4′-piperidine]-1-amine]",IC50,CYP2C8,> 25 µM
same,IC50,CYP1A2,> 25 µM
same,AUC,"[1]; Beagle Dog, 5 mg/kg",18200
same,bioavailability,"[1]; Beagle Dog, 5 mg/kg",162%
same,half-life,"[1]; Beagle Dog, 5 mg/kg",10.9 h
same,Cmax,"[1]; Beagle Dog, 5 mg/kg",907 nM
same,AUC,"[1]; Mouse, 5 mg/kg",5840
same,bioavailability,"[1]; Mouse, 5 mg/kg",61%
same,half-life,"[1]; Mouse, 5 mg/kg",11.8 h
same,Cmax,"[1]; Mouse, 5 mg/kg",306 nM
same,bioavailability,"[1]; Rat, 5 g/kg (so in the source)",64%
same,half-life,"[1]; Rat, 5 g/kg (so in the source)",22.3 h
same,Cmax,"[1]; Rat, 5 g/kg (so in the source)",211 nM
same,AUC,"[1]; Rat, (so in the source)",3540
same,IC50,CYP2C19,> 25 µM
same,IC50,CYP2C9,> 25 µM
same,IC50,CYP3A4,> 25 µM
same,IC50,CYP2D6,> 25 µM
same,IC50,MV4-11 leukemia cells,0.011 µM
same,half-life at 1 μM,"in vitro; dog, dogs liver microsomes",> 1 h
same,half-life at 1 μM,in vitro; human liver microsomes,> 1 h
same,half-life at 1 μM,in vitro; [2],> 1 h
same,half-life at 1 μM,"in vitro; mouse, mice liver microsomes",> 1 h
same,half-life at 1 μM,"in vitro; rat, rats liver microsomes",> 1 h
same,IC50,SHP2 enzyme,0.0044 µM
